# “And” between values parts separate entries of the source, which are not always exact repeats. Identical values can stand only once.
# Assays:
# MCF-10A cells = test: MTT viability assay, normal breast epithelial cells; format: cell-based, human
# Method: Human breast cancer cells, i.e., MCF-7 (estrogen-dependent breast cancer cells) and MDA-MB-231 (estrogen-independent breast cancer cells), as well as normal human breast epithelial cells (MCF-10A) were purchased from the American Type Culture Collection (ATCC, Manassas, VA, USA). MCF-7 and MDA-MB-231 cells were cultured in DMEM (Sigma Aldrich, St. Louis, MO, USA) supplemented with 10% fetal bovine serum (FBS), penicillin (100 U/mL) and streptomycin (100 μg/mL). MCF-10A cells were cultured in Mammary Epithelial Cell Growth Medium supplemented with BPE, hEGF, insulin, hydrocortisone, GA-1000 (Lonza, Basel, Switzerland), 10% fetal bovine serum (FBS), penicillin (100 U/mL) and streptomycin (100 μg/mL). The cells were grown in T25 Cell Culture EasyFlask (Nunc, Roskilde, Denmark) at 37 °C in a humidified atmosphere of 5% CO2.
# MTT assays were performed to evaluate the cytotoxic activity of the investigated compounds (1–3) against MCF-10A cells. Asuspension of cells (1 × 10^5 cells/mL) was distributed onto 96-well plates at a volume of 100 μL/well. After attachment, the cells were treated with increased concentrations of the tested compounds in medium containing 2% FBS, and incubated for 24 h. Then, 15 μL of MTT working solution (5 mg/mL in PBS) was added to each well and the plates were incubated for 3 h. Subsequently, 100 μL of 10% SDS solution was added to each well in order to dissolve the formazan formed. After overnight incubation at 37 °C, the absorbance of the obtained solution was measured at λ= 570 nm using a microplate reader (Epoch, BioTek Instruments, Inc., Winooski, VT, USA). At least two independent experiments were performed in triplicate. IC50 values of the tested compounds were calculated using the IC50 online calculator [27].
# MCF-7 cells [1] = test: Autophagy Assay (Red kit) flow cytometry, MCF-7; format: cell-based, human; conditions: 24 h
# Method: (§1) In order to evaluate the number of autophagosomes and autolysosomes in breast cancer cells incubated with the investigated compounds, anAutophagy Assay (Red kit) was performed (ImmunoChemistry Technologies, Bloomington, MN, USA). In short, the unfixed cells were washed and resuspended in PBS with the added autophagy probe, Red solution. Next, the cells were incubated for 30 min at 37 °C in the dark, washed, resuspended in cellular assay buffer and the provided fixative was added at a volume/volume ratio of 1:5. The samples were measured immediately after preparation by flow cytometry using the BD FACSCanto II system (BD Biosciences Systems, San Diego, CA, USA). The percentage of cells with autophagy was calculated using FACSDiva software (version 6.1.3, BD Biosciences Systems, San Diego, CA, USA).
# MDA-MB-231 cells [2] = test: Autophagy Assay (Red kit) flow cytometry, MDA-MB-231; format: cell-based, human; conditions: 24 h
# Method: as §1
# MCF-7 cells [3] = test: Cell cycle analysis (PI flow cytometry), MCF-7; format: cell-based, human; conditions: MCF-7, 20 µg/mL, 24 h
# Method: Cell cycle analyses of MCF-7 and MDA-MB-231 cells treated with compounds 1–3 and etoposide for 24 h were performed using a FACSCanto II flow cytometer (BD Bioscences Systems, San Diego, CA, USA). After incubation, breast cancer cells were trypsinized and fixed with cold ethanol (70%) and stored overnight at −20 °C. After removing ethanol, the cells were washed three times with PBS, treated with 50 μg/mL of DNase-free RNase A Solution (Promega, Madison, WI, USA) and stained with 100 μg/mL of PI. The results of measurements were analyzed using FCS Express 7 software (De Novo Software, Pasadena, CA, USA).
# [4] = target: T1, MDR1 (p-glycoprotein) in MDA-MB-231 cells (Homo sapiens, UniProt P08183); test: MDR transporter activity assay, MDR1 in MDA-MB-231; format: cell-based; conditions: MDA-MB-231, 20 µg/mL, 24 h
# T1 construct: endogenous in cells; host or cells: MCF-7 and MDA-MB-231 cells
# T1 sequence (P08183 whole entry): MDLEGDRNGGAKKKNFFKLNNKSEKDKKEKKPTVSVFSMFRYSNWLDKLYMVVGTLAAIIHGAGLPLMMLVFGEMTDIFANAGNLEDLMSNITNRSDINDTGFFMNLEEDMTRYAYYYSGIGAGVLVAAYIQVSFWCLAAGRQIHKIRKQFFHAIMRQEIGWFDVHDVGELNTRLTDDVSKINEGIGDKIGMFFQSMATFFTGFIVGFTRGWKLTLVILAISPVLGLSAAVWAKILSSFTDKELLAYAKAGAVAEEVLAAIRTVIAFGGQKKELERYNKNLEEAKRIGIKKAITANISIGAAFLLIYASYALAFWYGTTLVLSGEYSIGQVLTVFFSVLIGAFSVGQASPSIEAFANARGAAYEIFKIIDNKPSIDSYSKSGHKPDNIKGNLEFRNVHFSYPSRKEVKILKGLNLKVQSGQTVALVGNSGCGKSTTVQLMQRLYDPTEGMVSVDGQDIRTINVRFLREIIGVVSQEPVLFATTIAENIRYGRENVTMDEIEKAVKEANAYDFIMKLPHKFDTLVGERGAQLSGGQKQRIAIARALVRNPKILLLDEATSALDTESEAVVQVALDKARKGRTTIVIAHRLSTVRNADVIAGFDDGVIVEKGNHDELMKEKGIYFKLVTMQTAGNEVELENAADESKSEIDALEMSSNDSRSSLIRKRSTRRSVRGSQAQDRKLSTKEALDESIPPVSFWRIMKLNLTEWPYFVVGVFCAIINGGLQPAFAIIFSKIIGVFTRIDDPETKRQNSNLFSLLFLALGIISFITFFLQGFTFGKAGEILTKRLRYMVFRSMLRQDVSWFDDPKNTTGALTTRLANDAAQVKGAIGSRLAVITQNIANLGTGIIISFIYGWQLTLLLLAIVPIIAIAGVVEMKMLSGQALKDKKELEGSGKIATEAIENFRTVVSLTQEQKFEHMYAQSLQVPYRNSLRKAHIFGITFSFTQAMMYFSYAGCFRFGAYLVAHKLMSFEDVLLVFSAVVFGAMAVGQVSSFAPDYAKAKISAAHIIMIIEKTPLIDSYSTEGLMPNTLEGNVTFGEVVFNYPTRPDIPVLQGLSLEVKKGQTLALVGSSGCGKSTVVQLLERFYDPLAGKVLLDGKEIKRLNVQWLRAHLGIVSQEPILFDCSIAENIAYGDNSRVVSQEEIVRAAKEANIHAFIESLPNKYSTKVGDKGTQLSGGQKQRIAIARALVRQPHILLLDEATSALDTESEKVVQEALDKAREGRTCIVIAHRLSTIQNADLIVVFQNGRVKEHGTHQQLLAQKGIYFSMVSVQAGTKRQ
# Method: An MDR Assay kit (Abcam, Cambridge, UK) was used following the manufacturer’s instructions. MCF-7 and MDA-MB-231 cells were incubated with compounds 1–3 (10 μg/mL and 20 μg/mL). After 24 h of incubation, the test cells were washed twice with 5 mL of PBS by centrifugation at 1200 rpm for 10 min. The supernatants were discarded and the cells were counted using a Scepter 3.0 handheld automated cell counter (Milipore, Burlington, MA, USA). Then, each of the tested samples was divided into three parts and analyzed. Tomeasure the activity of MDR1, MRP1 and BCRP (tubes 1–12), 5 μL of verapamil (MDR1 inhibitor) was added into tubes 1–3, 5 μL of MK-571 (MRP1 inhibitor) was added into tubes 4–6, 5 μL of noviobiocin (BCRP inhibitor) was added into tubes 7–9 and 125 μL DMEM with 1 μL of DMSO was added into tubes 10–12. Then, the samples were incubated at 37 °C for five minutes. After this time, 125 μL of Efflux Green Detection Reagent was added into tubes 1–12 and the samples were incubated for 30 min at 37 °C. After 25 min of incubation, 5 μL of PI was added to each tube. Thereafter, the samples were centrifuged for 10 min at 1200 rpm. The supernatants were discarded and the cells were resuspended in 500 μL of PBS and run on the flow cytometer immediately. Measurements were conducted on a BD FACSCanto II flow cytometer using FACSDiva software (version 6.1.3, BD Biosciences, San Diego, CA, USA). […] The calculations followed these formulas:MAFMDR1= 100 × (FMDR1 − F0)/FMDR1 MAFMRP= 100 × (FMRP − F0)/FMRP MAFBCRP= 100 × (FBCRP − F0)/FBCRP
# • FMDR—MFI with MDR1 inhibitor (verapamil) • FMRP—MFI with MRP inhibitor (MK-571) • FBCRP—MFI with BCRP inhibitor (novobiocin) • F0—MFI without inhibitor
# The theoretical range of the MAF values is between 0 and 100.
# MCF-7 cells [5] = test system: MCF-7 cells; set-up: method as in PMID 36345785; conditions: MTT; cited from earlier work
# MDA-MB-231 cells [6] = test system: MDA-MB-231 cells; set-up: method as in PMID 36345785; conditions: MTT; cited from earlier work
# MCF-7 cells [7] = test system: MCF-7 cells; set-up: method as in PMID 36345785; conditions: BrdU assay; cited from earlier work
# MCF-7 cells [8] = test: Annexin V/propidium iodide flow cytometry (apoptosis), MCF-7; format: cell-based, human; conditions: MCF-7, 20 µg/mL, 24 h
# Source text: (§2) Flow cytometry analyses for apoptosis induction by the compounds 1–3 and etoposide wereperformedusing an FITC Annexin V Apoptosis Detection Kit II (BD Pharmingen, San Diego, CA, USA). The rationale of the assay is based on the externalization of phosphatidylserine on the surface of apoptotic cells. In early and late apoptotic cells, the phosphatidylserine translocates into the outer layer of the membrane, which allows annexin V-FITC to attach. Propidium iodide (PI) is, in turn, a fluorescent dye that penetrates into the late apoptotic and necrotic cells with impaired cell membrane integrity. Therefore, using annexin V and PI, it is possible to distinguish four groups of cells: living cells, early apoptotic cells, late apoptotic cells and necrotic cells. MCF-7 and MDA-MB-231 cells were incubated with 10 and 20 µg/mL of compounds 1–3 and etoposide (reference drug) for 24 h. After incubation, the cells were dyed with FITC-labeled annexin V and PI. The analysis was performed on a BD FACS Canto II flow cytometer using FACSDiva software (version 6.1.3, BD Biosciences Systems, San Diego, CA, USA). The equipment was calibrated with BD Cytometer Setup and Tracking Beads (BDBiosciences, San Diego, CA, USA).
# MDA-MB-231 cells [9] = test: Annexin V/propidium iodide flow cytometry (apoptosis), MDA-MB-231; format: cell-based, human; conditions: MDA-MB-231, 20 µg/mL, 24 h
# Source text: as §2
# caspase-8 in MCF-7 cells = test: FLICA caspase-8 activity flow cytometry, MCF-7; format: cell-based, human; conditions: MCF-7, 20 µg/mL, 24 h
# Method: (§3) Caspase-8 and caspase-9 activitiesweremeasured using the FLICA Caspase-8 Assay Kit and FLICA Caspase-9 Assay Kit (ImmunoChemistry Technologies, Bloomington, MN, USA), respectively, according to the manufacturer’s protocol. In brief, MCF-7 and MDA-MB-231 breast cancer cells (1 × 10^6) were washed with cold PBS twice and re-suspended in buffer. Then, 5 μL of diluted FLICA reagent and 2 μL of Hoechst 33,342 were added to 93 μL of cell suspension, mixed by pipetting and incubated for 60 min at 37 °C. After incubation, the cells were washed twice with 400 μL of apoptosis wash buffer and centrifuged at 300× g. After the last wash, the cells were resuspended in 100 μL of apoptosis wash buffer supplemented with 10 μg/mL of PI. Analyses were performed using aBD FACSCanto II flow cytometer, and the results were analyzed with FACSDiva software (version 6.1.3, BD BiosciencesSystems, San Diego, CA, USA). To identify the involvement of caspases in apoptosis induced by compounds 1–3, the investigated breast cancer cells were pretreated with the pan-caspase inhibitor, Z-VAD-FMK (100 µM) (Sigma Aldrich, St. Louis, MO, USA), as described in [28]. The activation of caspases-8 and -9 was detected as described above.
# [10] = test system: caspase-8 in MDA-MB-231 cells; test: FLICA caspase-8 activity flow cytometry, MDA-MB-231; format: cell-based, human; conditions: MDA-MB-231, 20 µg/mL, 24 h
# Method: as §3
# recombinant CYP2D6 = recombinant CYP2D6 (Homo sapiens, UniProt P10635); test: Vivid CYP2D6 Cyan screening kit; conditions: 10 µM, positive control
# Sequence of recombinant CYP2D6 (P10635 whole entry): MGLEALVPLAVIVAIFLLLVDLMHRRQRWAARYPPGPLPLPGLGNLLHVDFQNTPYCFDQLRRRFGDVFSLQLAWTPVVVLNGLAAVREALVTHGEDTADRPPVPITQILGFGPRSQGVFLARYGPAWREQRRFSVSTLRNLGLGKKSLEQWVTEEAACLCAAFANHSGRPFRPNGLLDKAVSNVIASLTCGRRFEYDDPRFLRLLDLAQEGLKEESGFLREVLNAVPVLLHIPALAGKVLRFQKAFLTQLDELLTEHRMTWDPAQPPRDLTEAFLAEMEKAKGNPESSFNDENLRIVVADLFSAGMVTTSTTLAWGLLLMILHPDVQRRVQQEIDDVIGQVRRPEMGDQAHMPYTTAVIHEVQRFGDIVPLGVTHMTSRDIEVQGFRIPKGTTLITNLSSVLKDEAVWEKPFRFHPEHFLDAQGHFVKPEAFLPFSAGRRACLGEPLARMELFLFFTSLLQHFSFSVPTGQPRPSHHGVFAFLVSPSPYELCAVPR
# Method: According to these assays, the examined compounds are analyzed by their ability to inhibit the production of a fluorescent signal in the reaction between recombinant CYP3A4 or CYP2D6 isozymes and specific Vivid substrates. The experiments were performed in the endpoint mode of the assay, in which solutions of examined compounds were first combined with the Master Pre-mix. After a short incubation, the background fluorescence of the Master Pre-mix and the examined compounds was measured. Next, a mix of the respective Vivid substrate and NADP^+ was added in order to initiate the enzymatic reaction. After 20 min of incubation, the reaction was terminated using a stop solution and the fluorescence was measured using the recommended (by the manufacturer) excitation and emission wavelengths. […] A reaction mixture without tested compounds was used as a negative control and its fluorescence was designated as 100%. The experiments were run in triplicate and the results were presented as means ± SD.
smiles,measurement,setting,value
CC(C)c1cccc(C(C)C)c1NC(=S)NNC(=O)Cc1cccc2ccccc12 [Compound 1],IC50,"MCF-10A cells; Homo sapiens, MCF-10A, MTT, 24 h",25.3 µg/mL and 60.3 µM
same,SIMCF-7 (selectivity index),MCF-10A cells; IC50 MCF-10A/IC50 MCF-7,2.57
same,SIMDA-MB-231 (selectivity index),MCF-10A cells; IC50 MCF-10A/IC50 MDA-MB-231,2.75
same,cells undergoing autophagy,"MCF-7 cells [1]; MCF-7, 10 µg/mL",2.5 ± 0.2%
same,cells undergoing autophagy,"MCF-7 cells [1]; MCF-7, 20 µg/mL",11.5 ± 1.2%
same,cells undergoing autophagy,"MDA-MB-231 cells [2]; MDA-MB-231, 10 µg/mL (lower end of printed range)",3.0 ± 0.2%
same,cells undergoing autophagy,"MDA-MB-231 cells [2]; MDA-MB-231, 20 µg/mL (upper end of printed range)",5.5 ± 0.9%
same,cells in G2/M phase,MCF-7 cells [3],33.6%
same,cells in S phase,MCF-7 cells [3],35.9%
same,MAF MDR1,[4],< 20
same,IC50,MCF-7 cells [5],23.4 ± 1.12 µM
same,IC50 MCF-7,MCF-7 cells [5],9.82 ± 0.47 µg/mL
same,IC50,MDA-MB-231 cells [6],21.9 ± 0.5 µM
same,IC50 MDA-MB-231,MDA-MB-231 cells [6],9.21 ± 0.21 µg/mL
same,"antiproliferative activity, times stronger than etoposide",MCF-7 cells [7],46 times
same,"selectivity index (SI), cancer vs normal (non-cancerous) cells",MCF-7 cells [7],46.8
"COc1cc([C@@H]2c3cc4c(cc3[C@@H](O[C@@H]3O[C@@H]5CO[C@@H](C)O[C@H]5[C@H](O)[C@H]3O)[C@H]3COC(=O)[C@H]23)OCO4)cc(OC)c1O [etoposide, reference compound]",apoptotic cells (sum of early and late apoptotic cells),MCF-7 cells [8],about 8.5%
same,apoptotic cells (sum of early and late apoptotic cells),MDA-MB-231 cells [9],about 8.5%
same,cells with activated caspase-8,caspase-8 in MCF-7 cells,6.73%
same,cells with activated caspase-8,[10],7.2%
same,cell population forming autophagosomes and/or autolysosomes,"MCF-7 cells [1]; MCF-7, etoposide-treated, concentration not specified",about 1%
same,cell population forming autophagosomes and/or autolysosomes,"MDA-MB-231 cells [2]; MDA-MB-231, etoposide-treated, concentration not specified",about 1%
C=C[C@H]1C[N@@]2CC[C@H]1C[C@@H]2[C@@H](O)c1ccnc2ccc(OC)cc12 [guanidine],CYP2D6 activity vs. negative control,recombinant CYP2D6,11.08 ± 0.81%

# Reference: PMC10051798, “Thiosemicarbazide Derivatives Targeting Human TopoIIα and IDO-1 as Small-Molecule Drug Candidates for Breast Cancer Treatment” (International Journal of Molecular Sciences, 2023)
